Measured values taken from ChEMBL document CHEMBL5543059, “Discovery of anti-inflammatory natural flavonoids: Diverse scaffolds and promising leads for drug discovery” (Eur J Med Chem, 2023).
Each block holds one compound with its values, some of them ahead of it.

Legend:
Neutrophil [1] = assay: Inhibition of fMLF/CB-induced human Neutrophil activation assessed as reduction in elastase release; type: functional, cell-based
Neutrophil [2] = assay: Inhibition of fMLF/CB-induced human Neutrophil activation assessed as reduction in superoxide anion; type: functional, cell-based
RAW264.7 [3] = assay: Antiinflammatory activity in LPS-activated mouse RAW264.7 cells assessed as inhibition of ROS production at 10 uM relative to control; type: functional; set-up: scale not given: the % may be the effect or the level left
Neutrophil [4] = assay: Inhibition of fMLF/CB-induced human Neutrophil activation assessed as reduction in superoxide anion generation pre-incubated for 2 mins prior to CB induction for 3 mins followed by fMLF addition by spectrophotometric analysis; type: functional, cell-based
J774.A1 [5] = assay: Anti-inflammatory activity in mouse J774.A1 macrophage cells assessed as reduction in LPS-induced TNF-alpha production; type: functional, cell-based
J774.A1 [6] = assay: Antiinflammatory activity in LPS-induced mouse J774.A1 macrophage cells assessed as reduction in LPS-induced IL-1 beta level; type: functional, cell-based
RAW264.7 [7] = assay: Anti-neuroinflammatory activity in mouse RAW264.7 cells assessed as inhibition of LPS-induced NO production pre-incubated for 1 hr followed by LPS stimulation and measured after 24 hrs by Griess reagent based assay; type: functional, cell-based
Mus musculus [8] = assay: Antiinflammatory activity against TPA-induced CD-1 mouse ear edema model assessed as reduction in ear edema at 1 uM relative to control; type: functional; set-up: scale not given: the % may be the effect or the level left
Mus musculus [9] = assay: Antiinflammatory activity against TPA-induced CD-1 mouse ear edema model assessed as reduction in ear edema at 0.25 mg/kg relative to control; type: functional; set-up: scale not given: the % may be the effect or the level left
Macrophage = assay: Anti-inflammatory activity in mouse macrophages extracted from abdominal activity assessed as inhibition of LPS-induced nitric oxide production; type: functional, cell-based
BV-2 [10] = assay: Antiinflammatory activity against mouse BV-2 cells assessed as reduction in LPS induced NO production measured for 24 hrs by Griess reagent based analysis; type: functional, cell-based; conditions: BV-2, 24 h
RAW264.7 [11] = assay: Anti-inflammatory activity in mouse RAW264.7 cells assessed as inhibition of LPS-induced nitric oxide production preincubated for 2 hrs followed by LPS stimulation and measured after 24 hrs by Griess assay; type: functional, cell-based
BV-2 [12] = assay: Anti-inflammatory activity in mouse BV-2 cells assessed as reduction in LPS-induced NO production pretreated for 1 hr followed by LPS-stimulation and measured after 18 hrs by 2,3-diaminonaphthalene reagent based fluorescence analysis; type: functional, cell-based
[13] = Anti-inflammatory activity in carrageenan-induced human PBMC cells assessed as inhibition of IL-beta leakage at 10 uM measured for 24 hrs relative to control; type: functional; set-up: scale not given: the % may be the effect or the level left
RAW264.7 [14] = assay: Antiinflammatory activity in LPS-induced mouse RAW264.7 cells assessed as reduction in COX2 mRNA expression incubated for 24 hrs by qRT-PCR analysis; type: functional, cell-based; conditions: RAW264.7, 24 h
BV-2 [15] = assay: Anti-inflammatory activity in mouse BV-2 cells assessed as reduction in LPS-induced NO production pre-treated with compounds for 2 hrs followed by LPS-stimulation measured for 22 hrs by Griess reagent based analysis; type: functional, cell-based
B16-F10 = assay: Anti-inflammatory activity in LPS-stimulated mouse B16-F10 cells assessed as reduction in TNFalpha production measured for 12 hrs by ELISA method; type: functional, cell-based; conditions: B16-F10, 12 h
THP-1 = assay: Anti-inflammatory activity in LPS-stimulated human THP-1 cells assessed as reduction of TNFalpha measured for 12 hrs by ELISA method; type: functional, cell-based; conditions: THP-1, 12 h
RAW264.7 [16] = assay: Antiinflammatory activity in mouse RAW264.7 cells assessed as decrease in LPS-induced IL-6 secretion after 24 hrs by ELISA method; type: functional, cell-based; conditions: RAW264.7, 24 h
RAW264.7 [17] = assay: Anti-inflammatory activity in LPS-stimulated mouse RAW264.7 cells assessed as inhibition of NO production incubated for 24 hrs by Griess reagent based assay; type: functional, cell-based; conditions: RAW264.7, 24 h

SMILES: COc1cc(O)ccc1/C=C/C(=O)c1ccc(O)cc1 [ECHINATIN]
Activity (RAW264.7 [3]): 80%

SMILES: COc1cc2oc(-c3ccccc3)cc(=O)c2c(O)c1O
IC50 (J774.A1 [5]): 0.22 µM | IC50 (J774.A1 [6]): 6.4 µM

SMILES: COc1c(/C=C/C(=O)c2ccc(O)cc2)ccc(O)c1O
Activity (RAW264.7 [3]): 80%

SMILES: c1ccc2c(c1)[I+]c1ccccc1-2 [DIPHENYLENEIODONIUM]
IC50 (Neutrophil [1]): 1 µM

SMILES: O=C1c2c(O)cc(O)cc2O[C@H](c2ccccc2)[C@H]1O [PINOBAKSIN]
Activity (Mus musculus [8]): 12.28%

SMILES: O=C1C[C@@H](c2ccc(O)cc2)Oc2cc(O)cc(O)c21 [NARINGENIN]
Activity (Mus musculus [9]): 42% | IC50 (Neutrophil [1]): 5.3 µM | IC50 (Neutrophil [2]): 3.3 µM

SMILES: Oc1cc(O)c2c(c1)O[C@H](c1cc(O)c(O)c(O)c1)[C@@H](O)C2 [GALLOCATECHIN]
IC50 (BV-2 [10]): 30.3 µM

SMILES: C=CC(C)(C)c1cc(/C=C/C(=O)c2ccc(O)cc2)c(OC)c(O)c1O
Activity (RAW264.7 [3]): 80%

SMILES: COc1cc(O)c2c(c1)O[C@H](c1ccc(O)cc1)CC2=O [SAKURANETIN]
Activity (Mus musculus [9]): 45.8%

SMILES: COc1ccc(-c2cc(=O)c3c(O)c(OC)c(OC)cc3o2)cc1OC
Activity [13]: 16.8%

SMILES: CNC(=N)NCCC[C@H](N)C(=O)O [TILARGININE]
IC50 (BV-2 [10]): 14.8 µM

SMILES: C=C(C)c1oc2c(OC)c3oc(=O)c(-c4ccc(OC)cc4)c(O)c3c(OC)c2c1OC
IC50 (RAW264.7 [7]): 0.89 µM

SMILES: COc1c(/C=C/C(=O)c2ccccc2)c(O)cc2occc12
IC50 (BV-2 [15]): 10.9 µM

SMILES: COc1ccc(-c2cc(=O)c3c(O)c(OC)c(OC)c(OC)c3o2)cc1 [GARDENIN B]
Activity [13]: 33.8%

SMILES: COc1c([C@@H](CC(=O)c2ccccc2)OC)c(O)cc2occc12
IC50 (BV-2 [15]): 29.2 µM

SMILES: O=S(=O)(F)Cc1ccccc1 [PHENYLMETHYLSULFONYLFLUORIDE]
IC50 (Neutrophil [2]): 95 µM

Further lines, results first:

IC50 (Neutrophil [1]): 3.8 µM | IC50 (Neutrophil [2]): 5.8 µM
SMILES: Cc1cc2oc(-c3ccc(O)c(O)c3)cc(=O)c2c2c1C[C@@]1(C)C(C)(C)CCC[C@@]1(C)O2

IC50 (Neutrophil [4]): ≤ 12.5 µM
SMILES: COc1cc(O)c2c(=O)cc(-c3ccc(OC)c(OC/C=C(\C)CCC=C(C)C)c3)oc2c1

IC50 (RAW264.7 [7]): 0.89 µM
SMILES: C=C(C)c1cc2c(OC)c3c(O)c(-c4ccc5c(c4)OCO5)c(=O)oc3c(OC)c2o1

IC50 (Macrophage): 4.68 µM
SMILES: COc1ccc(-c2coc3cc(O)c(CC=C(C)C)c(O)c3c2=O)c(O)c1

IC50 (RAW264.7 [7]): 0.89 µM
SMILES: C=C(C)c1cc2c(OC)c3c(O)c(-c4ccc(OC)cc4)c(=O)oc3c(OC)c2o1

IC50 (RAW264.7 [11]): 20 µM
SMILES: CC1(C)C=Cc2cc(-c3coc4cc(O)cc(O)c4c3=O)cc(O)c2O1

IC50 (BV-2 [12]): 40.1 µM
SMILES: Oc1ccc2c(c1)OC[C@H](c1cc3c(cc1O)OCO3)[C@H]2O

IC50 (Neutrophil [4]): ≤ 12.5 µM
SMILES: COc1cc(O)c2c(=O)cc(-c3ccc(OC)c(OC)c3)oc2c1

IC50 (RAW264.7 [11]): 0.25 µM
SMILES: CC(C)=CCc1c(O)ccc(-c2coc3c(CC=C(C)C)c(O)cc(O)c3c2=O)c1O

IC50 (RAW264.7 [14]): 11.7 µM
SMILES: CC(C)=CCC/C(C)=C/Cc1cc(C2CC(=O)c3c(O)cc(O)cc3O2)ccc1O (centres undefined)

IC50 (BV-2 [15]): 5.9 µM
SMILES: CC(C)=CCc1c(O)ccc(C(=O)/C=C/c2cc3c(cc2O)OCO3)c1O

IC50 (B16-F10): 5.6 µM | IC50 (THP-1): 12.4 µM
SMILES: COc1c(OC)c(O)c2c(=O)cc(-c3ccc(O)c(O)c3)oc2c1OC [SIDERITIFLAVONE]

IC50 (RAW264.7 [14]): 11.7 µM
SMILES: CC(C)=CCC/C(C)=C/Cc1cc(C2CC(=O)c3c(O)cc(O)cc3O2)cc(O)c1O (centres undefined)

IC50 (RAW264.7 [14]): 11.7 µM
SMILES: CC(C)=CCC/C(C)=C/Cc1c(C2CC(=O)c3c(O)cc(O)cc3O2)ccc(O)c1O (centres undefined)

IC50 (RAW264.7 [16]): 12.5 µM
SMILES: COc1ccc([C@@H]2CCc3cc(OC)c(O)cc3O2)cc1O

IC50 (BV-2 [12]): 46.3 µM
SMILES: COc1c(O)ccc2c1OC[C@H](c1cc3c(cc1O)OCO3)[C@H]2O

IC50 (RAW264.7 [14]): 11.7 µM
SMILES: CC(C)=CCC/C(C)=C/Cc1c(O)cc2c(c1O)C(=O)CC(c1ccc(O)c(O)c1)O2 (centres undefined)

IC50 (RAW264.7 [17]): 5.64 µM
SMILES: COc1cc(O)c2c(=O)cc(-c3ccc(O)cc3)oc2c1 [GENKWANIN]
